Reference: patent US20210070748A1, “INHIBITORS OF BRUTONS TYROSINE KINASE” (Pharmacyclics LLC, priority 2015, published 2021)

How the values were obtained:
LCK = LCK (Homo sapiens, UniProt P06239); test: Inhibition of a panel of kinases, in vitro HotSpot kinase assay: LCK; format: biochemical; conditions: D-compounds panel data; 1 μM ATP; read-out: IC50 LCK
BTK-WT = biological target: T1, BTK-WT (Homo sapiens, UniProt Q06187); test: Btk in vitro inhibitory activity (one of Method A TR-FRET, Method B electrophoretic mobility shift, Method C radiometric filter binding); format: biochemical; conditions: D-compounds panel data; read-out: IC50 BTK-WT
T1 construct: purified from insect cells as a full-length construct containing an N-terminal 6X-His tag; His6 (N); made in house; host or cells: insect cells (baculovirus Sf21 in Method B)
T1 sequence (Q06187 whole entry): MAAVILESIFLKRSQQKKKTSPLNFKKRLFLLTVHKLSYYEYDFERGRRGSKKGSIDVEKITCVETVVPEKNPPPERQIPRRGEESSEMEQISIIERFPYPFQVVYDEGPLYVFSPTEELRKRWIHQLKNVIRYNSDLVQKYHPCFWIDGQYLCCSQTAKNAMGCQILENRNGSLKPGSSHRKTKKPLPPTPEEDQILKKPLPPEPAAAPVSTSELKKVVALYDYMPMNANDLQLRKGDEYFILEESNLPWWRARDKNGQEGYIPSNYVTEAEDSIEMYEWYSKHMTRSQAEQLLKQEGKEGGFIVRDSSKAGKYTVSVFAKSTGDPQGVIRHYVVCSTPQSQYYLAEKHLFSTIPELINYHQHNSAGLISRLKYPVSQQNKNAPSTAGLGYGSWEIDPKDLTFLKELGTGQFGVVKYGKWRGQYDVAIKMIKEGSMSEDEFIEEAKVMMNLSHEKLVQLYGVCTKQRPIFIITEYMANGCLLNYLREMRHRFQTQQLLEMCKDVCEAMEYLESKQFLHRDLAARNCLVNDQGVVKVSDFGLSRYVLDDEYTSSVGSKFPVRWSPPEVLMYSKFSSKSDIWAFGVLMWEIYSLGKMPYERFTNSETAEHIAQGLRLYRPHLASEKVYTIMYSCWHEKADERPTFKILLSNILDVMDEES

LCK, sequence (P06239 whole entry): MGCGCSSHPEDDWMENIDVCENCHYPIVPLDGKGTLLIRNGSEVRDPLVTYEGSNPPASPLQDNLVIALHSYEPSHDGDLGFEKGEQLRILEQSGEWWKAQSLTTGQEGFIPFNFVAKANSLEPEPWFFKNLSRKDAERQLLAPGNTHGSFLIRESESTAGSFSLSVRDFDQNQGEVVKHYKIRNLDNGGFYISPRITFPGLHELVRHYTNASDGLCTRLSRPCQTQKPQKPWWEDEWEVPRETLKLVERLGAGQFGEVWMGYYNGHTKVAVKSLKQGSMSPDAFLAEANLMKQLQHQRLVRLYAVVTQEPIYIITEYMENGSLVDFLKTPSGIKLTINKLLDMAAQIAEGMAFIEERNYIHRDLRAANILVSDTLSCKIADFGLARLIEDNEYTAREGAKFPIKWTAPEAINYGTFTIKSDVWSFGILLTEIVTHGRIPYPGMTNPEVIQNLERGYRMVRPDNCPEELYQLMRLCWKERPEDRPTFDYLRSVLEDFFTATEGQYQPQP

| SMILES | IC50 (LCK) [nM] | IC50 (BTK-WT) [nM] |
| --- | --- | --- |
| C[C@@H]1[C@H](NC(=O)c2ccc(C(C)(O)CO)cc2)CCCN1c1cnc(C(N)=O)c(Nc2cnn(C)c2)n1 (single isomer, unassigned) [Example D-256] | 10 to 100 | ≤ 10 |
| C[C@@H]1[C@H](NC(=O)c2cc3c(n2C)CC(C)(C)C3)CCCN1c1cnc(C(N)=O)c(Nc2cnn(C)c2)n1 [Example D-19, 3-[(1-methyl-1H-pyrazol-4-yl)amino]-5-[(2R,3R)-2-methyl-3-{1,5,5-trimethyl-1H,4H,5H,6H-cyclopenta[b]pyrrole-2-amido}piperidin-1-yl]pyrazine-2-carboxamide] | 100 to 1000 | ≤ 10 |
| C[C@@H]1[C@H](NC(=O)c2ccc(C3CC3)cc2Cl)CCCN1c1cnc(C(N)=O)c(Nc2cnn(C)c2)n1 [Example D-20, 5-[(2R,3R)-3-(2-chloro-4-cyclopropylbenzamido)-2-methylpiperidin-1-yl]-3-[(1-methyl-1H-pyrazol-4-yl)amino]pyrazine-2-carboxamide] | 100 to 1000 | ≤ 10 |
| C[C@@H]1[C@H](NC(=O)c2ccc(C3CC3)cn2)CCCN1c1cnc(C(N)=O)c(Nc2cnn(C)c2)n1 [Example D-21, 5-[(2R,3R)-3-(5-cyclopropylpyridine-2-amido)-2-methylpiperidin-1-yl]-3-[(1-methyl-1H-pyrazol-4-yl)amino]pyrazine-2-carboxamide] | 100 to 1000 | ≤ 10 |
| C[C@@H]1[C@H](NC(=O)c2ccc(C3COC3)cc2)CCCN1c1cnc(C(N)=O)c(Nc2cnn(C)c2)n1 [Example D-23, 3-[(1-methyl-1H-pyrazol-4-yl)amino]-5-[(2R,3R)-2-methyl-3-[4-(oxetan-3-yl)benzamido]piperidin-1-yl]pyrazine-2-carboxamide] | 100 to 1000 | ≤ 10 |
| C[C@@H]1[C@H](NC(=O)c2ccc(C3CC3)cc2C(F)(F)F)CCCN1c1cnc(C(N)=O)c(Nc2cnn(C)c2)n1 [Example D-25, 5-[(2R,3R)-3-[4-cyclopropyl-2-(trifluoromethyl)benzamido]-2-methylpiperidin-1-yl]-3-[(1-methyl-1H-pyrazol-4-yl)amino]pyrazine-2-carboxamide] | 100 to 1000 | 10 to 100 |
| C[C@@H]1[C@H](NC(=O)c2ccc3ncsc3c2)CCCN1c1cnc(C(N)=O)c(Nc2cnn(C)c2)n1 [Example D-243, N-[(2R,3R)-1-{5-carbamoyl-6-[(1-methyl-1H-pyrazol-4-yl)amino]pyrazin-2-yl}-2-methylpiperidin-3-yl]-1,3-benzothiazole-6-carboxamide] | 10 to 100 | ≤ 10 |

Further lines, results first:

| IC50 (LCK) [nM] | IC50 (BTK-WT) [nM] | SMILES |
| --- | --- | --- |
| 10 to 100 | ≤ 10 | C[C@@H]1[C@H](NC(=O)c2ccc(C(O)C(F)(F)F)cc2)CCCN1c1cnc(C(N)=O)c(Nc2cnn(C)c2)n1 (single isomer, unassigned) [Example D-249] |
| 10 to 100 | ≤ 10 | C[C@@H]1[C@H](NC(=O)c2ccc(C(O)C(F)(F)F)cc2)CCCN1c1cnc(C(N)=O)c(Nc2cnn(C)c2)n1 (single isomer, unassigned) [Example D-250] |
| 100 to 1000 | ≤ 10 | C[C@@H]1[C@H](NC(=O)c2ccc(C(C)(O)CO)cc2)CCCN1c1cnc(C(N)=O)c(Nc2cnn(C)c2)n1 (single isomer, unassigned) [Example D-265] |
| 1000 to 10000 | ≤ 10 | C[C@@H]1[C@H](NC(=O)c2ccc(C(C)(C)C)cc2)CCCN1c1cnc(C(N)=O)c(Nc2cnn(C)c2)n1 [Example D-22, 5-[(2R,3R)-3-(4-tert-butylbenzamido)-2-methylpiperidin-1-yl]-3-[(1-methyl-1H-pyrazol-4-yl)amino]pyrazine-2-carboxamide] |
| 10 to 100 | ≤ 10 | C[C@@H]1[C@H](NC(=O)c2ccc(N(C)C)cc2)CCCN1c1cnc(C(N)=O)c(Nc2cnn(C)c2)n1 [Example D-24, 5-[(2R,3R)-3-[4-(dimethylamino)benzamido]-2-methylpiperidin-1-yl]-3-[(1-methyl-1H-pyrazol-4-yl)amino]pyrazine-2-carboxamide] |
